Test results taken from PMC8705986, “A Novel Angiotensin-I-Converting Enzyme (ACE) Inhibitory Peptide from Takifugu flavidus” (Marine Drugs, 2021).
Read-outs that look alike come from different tables or passages of the source.

Key:
ACE = conditions: cited from earlier work; for ACE-inhibitory activity, in words: shark meat hydrolysates, ref [16] Hao Wu et al.
Description: (§1) Marine organisms, which are rich in unique bioactive proteins, have been widely used in the search for ACE-inhibitory peptides. According to previous studies, many novel ACE-inhibitory peptides with efficient antihypertensive effects were obtained from marine organisms. […] Liu et al. investigated the antihypertensive activity of a protein hydrolysate that was made from Rhopilema esc ...

SHRs = conditions: oral administration in SHRs; ref [17] Lee et al.; cited from earlier work
Description: as §1

[1] = system: spontaneously hypertensive rats (SHRs); assay: Antihypertensive effect in SHRs, intravenous, tail-cuff SBP/DBP; format: in vivo; conditions: 5 mg/kg intravenous single dose
Protocol: Animals were obtained from Vital River Laboratory Animal Technology (Beijing, China), who also performed the blood pressure measurements in spontaneously hypertensive rats (SHRs) with a tail systolic blood pressure (SBP) of over 180 mmHg. Animals were fed a normal diet, and tap water was freely available. SHRs (11 weeks, 240 ± 20 g body weight) were raised at room temperature (25 °C) under a 12 h light/dark cycle. […] Captopril (5 mg/kg) was used as a positive control, and the negative control group was injected with an equal volume of saline. The SBP and DBP of the rats were measured using the tail-cuff method before administration and at 2, 4, 6, 12, and 24 h post-administration, using a BP-98A blood pressure monitor (Softron Biotechnology, Beijing, China) after heating the SHRs at 37 °C for 30 min in a warming chamber. All the rats received humane care conforming to the National Institutes of Health Guide for Care and Use of Laboratory Animals. This study was approved by the Ethics Committee of Guangdong medical laboratory animal center (No. 20211001).
Statistical analysis was performed using SPSS 19.0 software ([…]). Experimental data are presented as means ± standard deviations (SD) and were statistically evaluated using one-way analysis of variance (ANOVA) with Duncan’s test. Origin 9.0 (OriginLab, Northampton, MA, USA) software was used to process the data.

[2] = molecular target: T1, angiotensin-I-converting enzyme (ACE, EC 3.4.15.1, from rabbit lung) (rabbit) (UniProt P12822)
T1 sequence: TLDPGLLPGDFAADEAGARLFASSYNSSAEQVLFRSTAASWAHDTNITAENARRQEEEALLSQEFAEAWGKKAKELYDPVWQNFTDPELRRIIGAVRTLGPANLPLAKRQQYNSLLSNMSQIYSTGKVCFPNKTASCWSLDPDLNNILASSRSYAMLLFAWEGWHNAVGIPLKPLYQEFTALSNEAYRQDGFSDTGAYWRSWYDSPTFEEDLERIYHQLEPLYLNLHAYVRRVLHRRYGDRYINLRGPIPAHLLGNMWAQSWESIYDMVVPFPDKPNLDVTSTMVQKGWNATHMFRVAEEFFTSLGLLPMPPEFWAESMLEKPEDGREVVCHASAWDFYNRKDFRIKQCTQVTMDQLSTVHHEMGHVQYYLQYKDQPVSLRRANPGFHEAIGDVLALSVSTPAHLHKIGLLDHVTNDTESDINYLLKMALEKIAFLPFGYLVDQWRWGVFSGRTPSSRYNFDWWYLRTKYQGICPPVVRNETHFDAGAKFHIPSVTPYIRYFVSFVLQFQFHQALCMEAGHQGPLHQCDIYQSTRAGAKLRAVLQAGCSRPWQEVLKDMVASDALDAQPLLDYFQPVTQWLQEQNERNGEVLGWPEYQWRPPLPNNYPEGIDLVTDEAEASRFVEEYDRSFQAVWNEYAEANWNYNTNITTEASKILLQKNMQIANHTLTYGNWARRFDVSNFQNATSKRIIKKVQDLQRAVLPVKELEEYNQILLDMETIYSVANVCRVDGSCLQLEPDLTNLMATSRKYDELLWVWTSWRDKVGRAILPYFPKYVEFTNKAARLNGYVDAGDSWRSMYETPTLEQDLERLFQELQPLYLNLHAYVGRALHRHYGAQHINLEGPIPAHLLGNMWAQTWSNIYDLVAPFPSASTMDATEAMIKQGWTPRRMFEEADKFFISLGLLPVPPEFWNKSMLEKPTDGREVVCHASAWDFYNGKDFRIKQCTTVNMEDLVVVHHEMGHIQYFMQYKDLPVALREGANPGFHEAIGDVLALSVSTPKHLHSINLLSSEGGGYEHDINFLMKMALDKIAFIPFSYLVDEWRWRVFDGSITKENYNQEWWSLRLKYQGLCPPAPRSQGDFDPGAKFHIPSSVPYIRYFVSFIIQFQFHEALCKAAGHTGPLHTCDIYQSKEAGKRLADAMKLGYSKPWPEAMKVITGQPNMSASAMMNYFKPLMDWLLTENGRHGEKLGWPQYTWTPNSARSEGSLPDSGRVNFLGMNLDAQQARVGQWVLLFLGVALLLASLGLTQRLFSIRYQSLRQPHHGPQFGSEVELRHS

[3] = ref [14] Ghassem et al., read-out: IC50, ACE-inhibitory peptides from snakehead fish

With Phe-Glu as the molecule, how does the “ACE-inhibitory activity, in words” value (ACE) read?
Its value is “high ACE-inhibitory activity”.

For “Gly-Asp-Leu-Gly-Lys-Thr-Thr-Thr-Val-Ser-Asn-Trp-Ser-Pro-Pro-Lys-Try-Lys-Asp-Thr-Pro [PTFP]”, which “antihypertensive effect, in words” value (SHRs) is on record?
Its value is “has an antihypertensive effect after oral administration in SHRs”.

And the “ACE inhibition mode, tuna frame peptide” value (ACE; ref [17] Lee et al.)?
Its value is “non-competitive inhibitor”.

What about the IC50 (ACE; ref [17] Lee et al., read-out: IC50, ACE-inhibitory peptide from tuna frame protein) of the same molecule?
The IC50 was 11300 nM.

For Met-Phe, which “ACE-inhibitory activity, in words” value (ACE) is on record?
The value was “high ACE-inhibitory activity”.

With `C[C@H](CS)C(=O)N1CCC[C@H]1C(=O)O` [Captopril, captopril] as the molecule, how does the “systolic blood pressure (SBP) at 4 h” value ([1]; 4 h, p < 0.05) read?
Its value is 151 mmHg.

What about the “systolic blood pressure (SBP) at 24 h” value ([1]; 24 h) of the same molecule?
The value was 161 mmHg.

What about the “systolic blood pressure (SBP), starting value” ([1]; value from which SBP fell) of the same molecule?
Its value is 190 mmHg.

For LYPPP, which IC50 (ACE; [3]) is on record?
Its IC50 is 1300 nM.

Which IC50 (ACE; [3]) does the source give for YSMYPP here?
The IC50 was 2800 nM.

With Glu-Tyr as the molecule, how does the “ACE-inhibitory activity, in words” value (ACE) read?
The value was “high ACE-inhibitory activity”.

For Cys-Phe, which “ACE-inhibitory activity, in words” value (ACE) is on record?
The value was “high ACE-inhibitory activity”.

B1: PPLLFAAL (Pro-Pro-Leu-Leu-Phe-Ala-Ala-Leu) (peptide)
peptide: PPLLFAAL
Which ACE-inhibitory activity (hydrolysis of hippuryl-L-histidyl-L-leucine to hippuric acid, RP-HPLC at 220 nm, 37 °C, pH 8.3, 0.3 M NaCl), IC50 of the synthetic peptide [2] does the source give for B1 here?
Its ACE-inhibitory activity (hydrolysis of hippuryl-L-histidyl-L-leucine to hippuric acid, RP-HPLC at 220 nm, 37 °C, pH 8.3, 0.3 M NaCl), IC50 of the synthetic peptide is 28 μmol·L^−1.
